# Assay results published in patent US20100063065A1 (Inpharmatica Limited, priority 2005, published 2010).
# Molecular target: T1, PPARδ (Homo sapiens, UniProt Q03181)
# T1 construct: fused to amino acids 147-441 of PPARδ downstream of CMV promoter; expressed in transfected cells; host or cells: HEK293 cells, transiently transfected with pFACMV-PPARδ using Fugene
# T1 sequence (Q03181 147-441): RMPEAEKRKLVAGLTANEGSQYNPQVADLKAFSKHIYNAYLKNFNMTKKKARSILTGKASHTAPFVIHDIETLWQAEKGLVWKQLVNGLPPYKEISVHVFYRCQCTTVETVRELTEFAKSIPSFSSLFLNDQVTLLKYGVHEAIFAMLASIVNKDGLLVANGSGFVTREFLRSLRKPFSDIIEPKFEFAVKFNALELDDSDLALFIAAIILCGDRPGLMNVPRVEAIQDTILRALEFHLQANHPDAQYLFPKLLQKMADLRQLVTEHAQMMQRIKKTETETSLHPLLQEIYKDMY
# Experiment: Transactivation assay (PPARδ GAL4 assay) in transiently transfected HEK293 cells
# Format: cell-based
# Conditions: luciferase reporter, Table 2
# In short: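 Luciferase luminescence after 24 h compound treatment (0-30 μM final, OptiMEM, 37° C./5% CO2) gave EC50 by sigmoidal fitting, with activity normalised to GW501516 as percent. Reporter system: transiently transfected HEK293 expressing GAL4 DNA-binding domain fused to human PPARδ aa 147-441, plus 5×GAL4-driven luciferase.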
row,Structure (SMILES),EC50 [nM]
1,"CCc1cc(C(=O)c2ccc(OC(F)(F)F)cc2)c(NC(=O)CN([C@@H](C)C(=O)O)S(C)(=O)=O)s1 [Example 126, (S)-2-({[5-Ethyl-3-(4-trifluoromethoxy-benzoyl)-thiophen-2-ylcarbamoyl]-methyl}-methanesulfonyl-amino)-propionic acid]",1000 to 30000
2,"CCc1cc(C(=O)c2ccc(OC(F)(F)F)cc2)c(NC(=O)CSC(CC)C(=O)O)s1 (centres unmarked) [Example 127, 2-{[5-Ethyl-3-(4-trifluoromethoxy-benzoyl)-thiophen-2-ylcarbamoyl]-methylsulfanyl}-butyric acid]",< 100
3,"CCc1cc(C(=O)c2ccc(OC(F)(F)F)cc2)c(NC(=O)CSC(C(=O)O)c2ccccc2)s1 (centres unmarked) [Example 128, {[5-Ethyl-3-(4-trifluoromethoxy-benzoyl)-thiophen-2-ylcarbamoyl]-methylsulfanyl}-phenyl-acetic acid]",100 to 1000
4,"CCc1cc(C(=O)c2ccc(OC(F)(F)F)cc2)c(NC(=O)CS[C@@H](C)C(=O)O)s1 [Example 129, (S)-2-{[5-Ethyl-3-(4-trifluoromethoxy-benzoyl)-thiophen-2-ylcarbamoyl]-methylsulfanyl}-propionic acid]",< 100
5,"CCc1cc(C(=O)c2ccc(OC(C)C)c(Cl)c2)c(NC(=O)CSCC(=O)O)s1 [Example 130, {[3-(3-Chloro-4-isopropoxy-benzoyl)-5-ethyl-thiophen-2-ylcarbamoyl]-methylsulfanyl}-acetic acid]",100 to 1000
6,"CCc1cc(C(=O)c2ccc(OC(F)(F)F)c(F)c2)c(NC(=O)CSCC(=O)O)s1 [Example 131, {[5-Ethyl-3-(3-fluoro-4-trifluoromethoxy-benzoyl)-thiophen-2-ylcarbamoyl]-methylsulfanyl}-acetic acid]",< 100
7,"CCCc1cc(C(=O)c2ccc(OC(F)(F)F)cc2)c(NC(=O)CSCC(=O)O)s1 [Example 132, {[5-Propyl-3-(4-trifluoromethoxy-benzoyl)-thiophen-2-ylcarbamoyl]-methylsulfanyl}-acetic acid]",< 100
8,"CC(C)c1cc(C(=O)c2ccc(OC(F)(F)F)cc2)c(NC(=O)CSCC(=O)O)s1 [Example 133, {[5-Isopropyl-3-(4-trifluoromethoxy-benzoyl)-thiophen-2-ylcarbamoyl]-methylsulfanyl}-acetic acid]",< 100
9,"CCC(C)c1cc(C(=O)c2ccc(OC(F)(F)F)cc2)c(NC(=O)CSCC(=O)O)s1 (centres unmarked) [Example 134, {[5-sec-Butyl-3-(4-trifluoromethoxy-benzoyl)-thiophen-2-ylcarbamoyl]-methylsulfanyl}-acetic acid]",100 to 1000
10,"CCc1cc(C(=O)c2ccc(F)cc2)c(NC(=O)CSc2ccc(OCC(=O)O)cc2)s1 [Example 135, (4-{[5-Ethyl-3-(4-fluoro-benzoyl)-thiophen-2-ylcarbamoyl]-methylsulfanyl}-phenoxy)-acetic acid]",1000 to 30000
11,"CCc1cc(C(=O)c2ccc(Cl)cc2)c(NC(=O)CSc2ccc(OCC(=O)O)cc2)s1 [Example 136, (4-{[3-(4-Chloro-benzoyl)-5-ethyl-thiophen-2-ylcarbamoyl]-methylsulfanyl}-phenoxy)-acetic acid]",1000 to 30000
12,"CCc1cc(C(=O)c2ccc(F)cc2)c(NC(=O)CSc2ccc(OC(C)(C)C(=O)O)cc2)s1 [Example 137, 2-(4-{[5-Ethyl-3-(4-fluoro-benzoyl)-thiophen-2-ylcarbamoyl]-methylsulfanyl}-phenoxy)-2-methyl-propionic acid]",100 to 1000
13,"CCc1cc(C(=O)c2ccc(Cl)cc2)c(NC(=O)CSc2ccc(OC(C)(C)C(=O)O)cc2)s1 [Example 138, 2-(4-{[3-(4-Chloro-benzoyl)-5-ethyl-thiophen-2-ylcarbamoyl]-methylsulfanyl}-phenoxy)-2-methyl-propionic acid]",100 to 1000
14,"CCc1cc(C(=O)c2nc3ccccc3s2)c(NC(=O)CSCC(=O)O)s1 [Example 139, {[3-(Benzothiazole-2-carbonyl)-5-ethyl-thiophen-2-ylcarbamoyl]-methylsulfanyl}-acetic acid]",1000 to 30000
15,"CCc1cc(C(=O)c2cc3ccccc3o2)c(NC(=O)CSCC(=O)O)s1 [Example 140, {[3-(Benzofuran-2-carbonyl)-5-ethyl-thiophen-2-ylcarbamoyl]-methylsulfanyl}-acetic acid]",1000 to 30000
16,"Cc1cc(C(=O)c2ccc(OC(F)(F)F)cc2)c(NC(=O)CSc2ccc(OCC(=O)O)cc2)s1 [Example 141, (4-{[5-Methyl-3-(4-trifluoromethoxy-benzoyl)-thiophen-2-ylcarbamoyl]-methylsulfanyl}-phenoxy)-acetic acid]",< 100
17,"CCc1cc(C(=O)c2ccc(OC(F)(F)F)c(Cl)c2)c(NC(=O)CSCC(=O)O)s1 [Example 142, {[3-(3-Chloro-4-trifluoromethoxy-benzoyl)-5-ethyl-thiophen-2-ylcarbamoyl]-methylsulfanyl}-acetic acid]",< 100
18,"CCc1cc(C(=O)c2cccc(OC(F)(F)F)c2)c(NC(=O)CSCC(=O)O)s1 [Example 143, {[5-Ethyl-3-(3-trifluoromethoxy-benzoyl)-thiophen-2-ylcarbamoyl]-methylsulfanyl}-acetic acid]",1000 to 30000
19,"CCc1cc(C(=O)c2cc(C)n(C)n2)c(NC(=O)CSCC(=O)O)s1 [Example 144, {[3-(1,5-Dimethyl-1H-pyrazole-3-carbonyl)-5-ethyl-thiophen-2-ylcarbamoyl]-methylsulfanyl}-acetic acid]",1000 to 30000
20,"CCc1cc(C(=O)c2ccc(-c3ccccn3)cc2)c(NC(=O)CSCC(=O)O)s1 [Example 145, {[5-Ethyl-3-(4-pyridin-2-yl-benzoyl)-thiophen-2-ylcarbamoyl]-methylsulfanyl}-acetic acid]",100 to 1000
21,"CCc1cc(C(=O)c2ccc(OC(F)(F)F)cc2)c(NC(=O)CCC(C)(C)C(=O)O)s1 [Example 146, 4-[5-Ethyl-3-(4-trifluoromethoxy-benzoyl)-thiophen-2-ylcarbamoyl]-2,2-dimethyl-butyric acid]",< 100
22,"CCc1cc(C(=O)c2ccc(Cl)cc2)c(NC(=O)CCC(C)(C)C(=O)O)s1 [Example 147, 4-[3-(4-Chloro-benzoyl)-5-ethyl-thiophen-2-ylcarbamoyl]-2,2-dimethyl-butyric acid]",100 to 1000
23,"CCc1cc(C(=O)c2ccc(OC(F)(F)F)c(F)c2)c(NC(=O)CCC(C)(C)C(=O)O)s1 [Example 148, 4-[5-Ethyl-3-(3-fluoro-4-trifluoromethoxy-benzoyl)-thiophen-2-ylcarbamoyl]-2,2-dimethyl-butyric acid]",100 to 1000
24,"CCc1cc(C(=O)c2cc3ccccc3n2C)c(NC(=O)CSCC(=O)O)s1 [Example 149, {[5-Ethyl-3-(1-methyl-1H-indole-2-carbonyl)-thiophen-2-ylcarbamoyl]-methylsulfanyl}-acetic acid]",1000 to 30000
25,"CCc1cc(C(=O)c2cc3cc(OC(F)(F)F)ccc3n2C)c(NC(=O)CSCC(=O)O)s1 [Example 150, {[5-Ethyl-3-(1-methyl-5-trifluoromethoxy-1H-indole-2-carbonyl)-thiophen-2-ylcarbamoyl]-methylsulfanyl}-acetic acid]",< 100
26,"CCc1cc(C(=O)c2cc3cc(Cl)ccc3n2C)c(NC(=O)CSCC(=O)O)s1 [Example 151, {[3-(5-Chloro-1-methyl-1H-indole-2-carbonyl)-5-ethyl-thiophen-2-ylcarbamoyl]-methylsulfanyl}-acetic acid]",< 100
